From patent US9254331B2, “Sulforaphane stabilization” (AURIGA INTERNATIONAL, priority 2010, dated 2016)

Tests used:
[1] = allyl isothiocyanate sample treated one hour in boiling water, cited from earlier work
[2] = NMR
[3] = mixture of isoamyl salicylate, capric/caprylic triglyceride and silicone derivative, 2% sulforaphane
[4] = remark: listed apart in the source
Procedure: The stability of sulforaphane was investigated in the following way: a 1% sulforaphane solution is prepared in different media to be tested. The preparation, maintained in a closed container is then thermostated at 25° C., 37° C. or 40° C. Kinetic tracking is carried out by assaying the residual sulforaphane.
The HPLC method used is the following:
Column: Discovery C18 (15 cm×4.8 mm×5 μm)
Mobile Phase: isocratic CH3CN/H2O (50/50)
Injection (10 μL) after dilution of the parent solution in the mobile phase in order to obtain a sulforaphane concentration of 1 mg/mL.
External standard: naphthalene.
1% of sulforaphane were placed per mL of solution containing diphospholipides such as for example Phosal®. The preparation, maintained in a closed container is then thermostated at 40° C. Kinetic tracking is carried out by assaying the residual sulforaphane:
1% m/m sulforaphane solutions were prepared in each anhydrous ester mentioned above. Kinetic tracking of the degradation was then carried out at 40° C. by using naphthalene as an external standard.
Kinetic tracking of the degradation was then carried out at 40° C. by using naphthalene, as an external standard.

[5] = not given; remark: listed apart in the source
[6] = Stabilization of isothiocyanates with ascorbic acid upon storage; settings: similar study with sulforaphane
From the text: Further, it is also known how to stabilize allyl isothiocyanate with ascorbic acid.

[7] = after seven months, cited from earlier work
[8] = cited from earlier work
[9] = closed flask, non-inertized, exposed to light

## C1=CSSSC1 [4H-1,2,3-trithiin]
[1]
  Concentration at pH 2.7: Traces
  Concentration at pH 7.0: Traces
  Concentration at pH 9.0: Traces

## C=CCN=C=S [allyl isothiocyanate, reference compound]
[1]
  Concentration at pH 2.7: 379.06 mg/g
  Concentration at pH 7.0: 290.27 mg/g
  Concentration at pH 9.0: 270.46 mg/g

## C=CCSSCC=C [diallyl disulfide]
[1]
  Concentration at pH 2.7: 8.09 mg/g
  Concentration at pH 7.0: 11.47 mg/g
  Concentration at pH 9.0: 12.71 mg/g

## CC1CSSSS1 (centres unmarked) [5-methyl-1,2,3,4-tetrathiane]
[1]
  Concentration at pH 2.7: 0.01 mg/g
  Concentration at pH 7.0: 0.02 mg/g
  Concentration at pH 9.0: 0.03 mg/g

## C=CCSCC=C [diallyl sulfide]
[1]
  Concentration at pH 2.7: 13.09 mg/g
  Concentration at pH 7.0: 22.16 mg/g
  Concentration at pH 9.0: 26.40 mg/g

## C[S+]([O-])CCCCN=C=S (centres unmarked) [sulforaphane]
[2]; 24 hour reflux
  degradation on heating with reflux in chloroform: did not either show any degradation
[2]; [9]
  stability in solution in DMSO: stable for at least one week
  stability in solution in chloroform: stable for at least one week
[3]
  penetration into the skin: good penetration into the skin
Thermostated injector at 250° C.
  product degraded into 3-butenylisothiocyanate on injection in gas chromatography: 80%
Without passing through the injector
  degradation when injected directly onto the column: no degradation peak is observed
[4]; 1% (m/m) in 2-octyl-dodecanol (Nerol 20) and dimethyl isosorbide
  degradation in 2-octyl-dodecanol and dimethyl isosorbide: degraded over time
[4]; 1% (m/m) in jojoba, argan and eglantine rose oils
  degradation in vegetable oils: too substantial to allow commercial use
[4]; 1% (m/m) in triethylpropane triostearate and coco caprylate-caprate CCC, 40° C.
  degradation in isostearate and coco caprylate-caprate: negligible
[4]; 1% in solution containing phospholipids (Phosal), 40° C., in less than 3 days
  degradation in phospholipid medium: more than 40%
[4]; 1% m/m in ester 610, methyl salicylate, isoamyl salicylate, 40° C.
  degradation in anhydrous esters: negligible
[4]; 1% solution in water, 40° C., after 2 days
  loss of sulforaphane: 10%
[4]; 1% solution in water, 40° C., after 10 days
  remaining fraction of initial content: 50%
[4]; 2% (m/m) in isoamyl salicylate, capric/caprylic triglyceride and silicone derivative, 6 months at 40° C.
  degradation in cosmetic formulation: 3-5%
[4]; 2% sulforaphane, 2 anhydrous esters and methylpolysiloxane A or B
  degradation in galenic formulation: no degradation is observed
[4]; antioxidant hydro-alcoholic medium, 25° C.
  time after which residual sulforaphane begins to fall: 1 days
[4]; antioxidant hydro-alcoholic medium, 37° C., in less than 7 days
  remaining fraction of initial amount: no more than 50%
[4]; ethanol, 40° C., early days, coupling compound with ethanol formed
  degradation trend in ethanol: very dearly marked
[4]; tocopheryl acetate
  degradation in tocopheryl acetate: no significant degradation
[5]; argan oil
  solubility in argan oil: ~2%
[5]; eglantine rose oil
  solubility in eglantine rose oil: ~3.5%
[5]; ester 610, methyl salicylate, isoamyl salicylate (Example 1)
  solubility in anhydrous esters: > 6 % (m/m)
[5]; jojoba oil
  solubility in jojoba oil: about 0.5 % (m/m)
[5]; mixture of isoamyl salicylate, capric/caprylic triglyceride and silicone derivative
  solubilization in cosmetic formulation: 2%
[5]; triethylpropane triostearate, coco caprylate-caprate (Example 4)
  solubility in pure anhydrous esters: > 6 % (m/m)
[6]
  stabilization of sulforaphane by ascorbic acid: not able to stabilize
[7]; less suitable, not very stabilizing cyclodextrins
  degradation with less suitable cyclodextrins: up to 50%
[7]; α-cyclodextrins
  degradation with α-cyclodextrins: less than 10%
[8]; 50% of acacia gum, 40° C./75% humidity versus 25° C./60% humidity
  degradation under accelerated versus normal ageing conditions: twice more significant
[8]; 70% gum arabic, 25° C., first week, then relatively stable
  degradation with 70% gum arabic at 25° C.: slight degradation
[8]; 70% gum arabic, after one month, 40° C.
  degradation with 70% gum arabic: ≤ 30%
[8]; sample having 50% of acacia gum
  stabilization with 50% of acacia gum: does not exhibit any particular stabilization

## C=CCSC#N [allyl thiocyanate]
[1]
  Concentration at pH 2.7: 9.21 mg/g
  Concentration at pH 7.0: 13.84 mg/g
  Concentration at pH 9.0: 12.32 mg/g

## C=CCSSSCC=C [diallyl trisulfide]
[1]
  Concentration at pH 2.7: 10.31 mg/g
  Concentration at pH 7.0: 13.63 mg/g
  Concentration at pH 9.0: 14.11 mg/g

## C=CCSSSSCC=C [diallyl tetrasulfide]
[1]
  Concentration at pH 2.7: Traces
  Concentration at pH 7.0: Traces
  Concentration at pH 9.0: Traces

## C1=CSSC1 [3H-1,2-dithiolene]
[1]
  Concentration at pH 2.7: 0.13 mg/g
  Concentration at pH 7.0: 0.17 mg/g
  Concentration at pH 9.0: 0.19 mg/g

## C=CC1SC=CCS1 (centres unmarked) [2-vinyl-4-1,3-dithiin]
[1]
  Concentration at pH 2.7: Traces
  Concentration at pH 7.0: Traces
  Concentration at pH 9.0: Traces
